Patent US11083717B2, “Compositions and methods for drug sensitization of parasites” (The Texas A&M University System, priority 2015, dated 2021)
Read-outs that look alike come from different tables or passages of the source.

Key:
human fibroblast = assay: in vitro
Text: (§1) These tests included an IL-12 mouse model test to determine compound efficacy, verification of MIC50 for CP, cytotoxicity test for fibroblasts and yeast to determine potential toxic effects, a Human ether-a-go-go-related gene (hERG) test to determine potential cardiotoxicity, an AMES test tp determine mutagenic potential, a Safety Screen 44 test to determine common negative off-target drug interastion (Eurofins Cerep, SA, France), a cytochrome P450 (CYP) test to determine potential liver toxicity, a maximum tolerated dose, test, a Pharmacokinetics (PK) test to determine fate of the substance administered to a living organism tests for plasma stability in human and mouse, to measure the degradation of compound in plasma MClint and HClint test to determine in vitro intrinsic clearance for Mouse and Human, and kinetic solubility and plasma protein binding tests in mouse and human.

S. cerevisiae = assay: in vitro; details: Saccharomyces cerevisiae
Text: as §1

SMILES: CONC(=O)C(C)c1ccc(Oc2nc3ccc(Cl)cc3s2)cc1 (stereo not drawn) [NZ-313, 2-{4-[(6-chloro-1,3-benzothiazol-2-yl)oxy]phenyl}-N-methoxypropanamide]
- concentrations at which not toxic, human fibroblast cytotoxicity testing (human fibroblast; human): ≥ 100 µM
- concentrations at which not toxic, S. cerevisiae cytotoxicity testing (S. cerevisiae): ≥ 100 µM

SMILES: COC(=O)C(C)(C)Oc1ccc(Oc2cnc3cc(Cl)ccc3n2)cc1 [NZ-314, methyl 2-{4-[(6-chloroquinoxalin-2-yl)oxy]phenoxy}-2-methylpropanoate]
- concentrations at which not toxic, human fibroblast cytotoxicity testing (human fibroblast; human): ≥ 100 µM
- concentrations at which not toxic, S. cerevisiae cytotoxicity testing (S. cerevisiae): ≥ 100 µM

SMILES: CC(C)(Oc1ccc(Oc2cnc3cc(Cl)ccc3n2)cc1)C(=O)O [NZ-315, 2-{4-[(6-chloroquinoxalin-2-yl)oxy]phenoxy}-2-methylpropanoic acid]
- concentrations at which not toxic, human fibroblast cytotoxicity testing (human fibroblast): ≥ 100 µM
- concentrations at which not toxic, S. cerevisiae cytotoxicity testing (S. cerevisiae): ≥ 100 µM

SMILES: CONC(=O)C(C)(C)Oc1ccc(Oc2cnc3cc(Cl)ccc3n2)cc1 [NZ-316, 2-{4-[(6-chloroquinoxalin-2-yl)oxy]phenoxy}-N-methoxy-2-methylpropanamide]
- concentrations at which not toxic, human fibroblast cytotoxicity testing (human fibroblast; human): ≥ 100 µM
- concentrations at which not toxic, S. cerevisiae cytotoxicity testing (S. cerevisiae): ≥ 100 µM

SMILES: COC(=O)C(C)(C)Oc1ccc(Oc2nc3ccc(Cl)cc3s2)cc1 [NZ-317, methyl 2-{4-[(6-chloro-1,3-benzothiazol-2-yl)oxy]phenoxy}-2-methylpropanoate]
- concentrations at which not toxic, human fibroblast cytotoxicity testing (human fibroblast; human): ≥ 100 µM
- concentrations at which not toxic, S. cerevisiae cytotoxicity testing (S. cerevisiae): ≥ 100 µM

SMILES: CC(C)(Oc1ccc(Oc2nc3ccc(Cl)cc3s2)cc1)C(=O)O [NZ-318, 2-{4-[(6-chloro-1,3-benzothiazol-2-yl)oxy]phenoxy}-2-methylpropanoic acid]
- concentrations at which not toxic, human fibroblast cytotoxicity testing (human fibroblast): ≥ 100 µM
- concentrations at which not toxic, S. cerevisiae cytotoxicity testing (S. cerevisiae): ≥ 100 µM

SMILES: CONC(=O)C(C)(C)Oc1ccc(Oc2nc3ccc(Cl)cc3s2)cc1 [NZ-319, 2-{4-[(6-chloro-1,3-benzothiazol-2-yl)oxy]phenoxy}-N-methoxy-2-methylpropanamide]
- concentrations at which not toxic, human fibroblast cytotoxicity testing (human fibroblast; human): ≥ 100 µM
- concentrations at which not toxic, S. cerevisiae cytotoxicity testing (S. cerevisiae): ≥ 100 µM

SMILES: CONC(=O)c1cc2ccc(Oc3ccccc3)cc2oc1=O [NZ-320, N-methoxy-2-oxo-7-phenoxy-2H-chromene-3-carboxamide]
- concentrations at which not toxic, human fibroblast cytotoxicity testing (human fibroblast; human): ≥ 100 µM
- concentrations at which not toxic, S. cerevisiae cytotoxicity testing (S. cerevisiae): ≥ 100 µM

SMILES: CC(C)(C)OC(=O)Nc1ccc(Oc2cnc3cc(Cl)ccc3n2)cc1 [NZ-321, tert-butyl N-{4-[(6-chloroquinoxalin-2-yl)oxy]phenyl}carbamate]
- concentrations at which not toxic, human fibroblast cytotoxicity testing (human fibroblast; human): ≥ 100 µM
- concentrations at which not toxic, S. cerevisiae cytotoxicity testing (S. cerevisiae): ≥ 100 µM

SMILES: O=C(COc1ccc(Oc2cnc3cc(Cl)ccc3n2)cc1)NOCC1CC1 [NZ-323, 2-{4-[(6-chloroquinoxalin-2-yl)oxy]phenoxy}-N-(cyclopropylmethoxy)acetamide]
- concentrations at which not toxic, human fibroblast cytotoxicity testing (human fibroblast): ≥ 100 µM
- concentrations at which not toxic, S. cerevisiae cytotoxicity testing (S. cerevisiae): ≥ 100 µM

SMILES: CC(C)ONC(=O)COc1ccc(Oc2cnc3cc(Cl)ccc3n2)cc1 [NZ-326, 2-{4-[(6-chloroquinoxalin-2-yl)oxy]phenoxy}-N-(propan-2-yloxy)acetamide]
- concentrations at which not toxic, human fibroblast cytotoxicity testing (human fibroblast): ≥ 100 µM
- concentrations at which not toxic, S. cerevisiae cytotoxicity testing (S. cerevisiae): ≥ 100 µM

SMILES: COC(=O)C(C)c1ccc(Oc2nc3ccc(F)cc3s2)cc1 (stereo not drawn) [NZ-328, methyl 2-{4-[(6-fluoro-1,3-benzothiazol-2-yl)oxy]phenyl}propanoate]
- concentrations at which not toxic, human fibroblast cytotoxicity testing (human fibroblast; human): ≥ 100 µM
- concentrations at which not toxic, S. cerevisiae cytotoxicity testing (S. cerevisiae): ≥ 100 µM

SMILES: CC(C(=O)O)c1ccc(Oc2nc3ccc(F)cc3s2)cc1 (stereo not drawn) [NZ-329, 2-{4-[(6-fluoro-1,3-benzothiazol-2-yl)oxy]phenyl}propanoic acid]
- concentrations at which not toxic, human fibroblast cytotoxicity testing (human fibroblast; human): ≥ 100 µM
- concentrations at which not toxic, S. cerevisiae cytotoxicity testing (S. cerevisiae): ≥ 100 µM

SMILES: CONC(=O)C(C)c1ccc(Oc2nc3ccc(F)cc3s2)cc1 (stereo not drawn) [NZ-330, 2-{4-[(6-fluoro-1,3-benzothiazol-2-yl)oxy]phenyl}-N-methoxypropanamide]
- concentrations at which not toxic, human fibroblast cytotoxicity testing (human fibroblast; human): ≥ 100 µM
- concentrations at which not toxic, S. cerevisiae cytotoxicity testing (S. cerevisiae): ≥ 100 µM

SMILES: COc1ccc2nc(Oc3ccc(C(C)C(=O)O)cc3)sc2c1 (stereo not drawn) [NZ-334]
- concentrations at which not toxic, human fibroblast cytotoxicity testing (human fibroblast; human): ≥ 100 µM
- concentrations at which not toxic, S. cerevisiae cytotoxicity testing (S. cerevisiae): ≥ 100 µM

SMILES: CONC(=O)C(C)c1ccc(Oc2nc3ccc(OC)cc3s2)cc1 (stereo not drawn) [NZ-335, N-methoxy-2-{4-[(6-methoxy-1,3-benzothiazol-2-yl)oxy]phenyl}propanamide]
- concentrations at which not toxic, human fibroblast cytotoxicity testing (human fibroblast; human): ≥ 100 µM
- concentrations at which not toxic, S. cerevisiae cytotoxicity testing (S. cerevisiae): ≥ 100 µM

SMILES: COC(=O)C(O)c1ccc(Oc2nc3ccc(Cl)cc3s2)cc1 (stereo not drawn) [NZ-336, methyl 2-{4-[(6-chloro-1,3-benzothiazol-2-yl)oxy]phenyl}-2-hydroxyacetate]
- concentrations at which not toxic, human fibroblast cytotoxicity testing (human fibroblast; human): 50 to 100 µM
- concentrations at which not toxic, S. cerevisiae cytotoxicity testing (S. cerevisiae): 50 to 100 µM

SMILES: O=C(O)C(O)c1ccc(Oc2nc3ccc(Cl)cc3s2)cc1 (stereo not drawn) [NZ-337, 2-{4-[(6-chloro-1,3-benzothiazol-2-yl)oxy]phenyl}-2-hydroxyacetic acid]
- concentrations at which not toxic, human fibroblast cytotoxicity testing (human fibroblast; human): ≥ 100 µM
- concentrations at which not toxic, S. cerevisiae cytotoxicity testing (S. cerevisiae): ≥ 100 µM

SMILES: COc1ccc2nc(Oc3ccc(NC(=O)NC(C)C)cc3)sc2c1 [NZ-361, 1-{4-[(6-methoxy-1,3-benzathiazol-2-yl)oxy]phenyl}-3-(propan-2-yl)urea]
- concentrations at which not toxic, human fibroblast cytotoxicity testing (human fibroblast; human): ≥ 100 µM
- concentrations at which not toxic, S. cerevisiae cytotoxicity testing (S. cerevisiae): ≥ 100 µM

SMILES: CC(C)NC(=O)Nc1ccc(Oc2nc3ccc(O)cc3s2)cc1 [NZ-362, 1-{4-[(6-hydroxy-1,3-benzothiazol-2-yl)oxy]phenyl}-3-(propan-2-yl)urea]
- concentrations at which not toxic, human fibroblast cytotoxicity testing (human fibroblast; human): ≥ 100 µM
- concentrations at which not toxic, S. cerevisiae cytotoxicity testing (S. cerevisiae): ≥ 100 µM

SMILES: CC(C)NC(=O)Nc1ccc(Oc2nc3cc(F)ccc3s2)cc1 [NZ-373, 1-{4-[(5-fluoro-1,3-benzothiazol-2-yl)oxy]phenyl}-3-(propan-2-yl)urea]
- concentrations at which not toxic, human fibroblast cytotoxicity testing (human fibroblast): ≥ 100 µM
- concentrations at which not toxic, S. cerevisiae cytotoxicity testing (S. cerevisiae): ≥ 100 µM

SMILES: CC(C)NC(=O)Nc1ccc(Oc2nc3c(F)cccc3s2)cc1 [NZ-374, 1-{4-[(4-fluoro-1,3-benzothiazol-2-yl)oxy]phenyl}-3-(propan-2-yl)urea]
- concentrations at which not toxic, human fibroblast cytotoxicity testing (human fibroblast; human): ≥ 100 µM
- concentrations at which not toxic, S. cerevisiae cytotoxicity testing (S. cerevisiae): ≥ 100 µM

SMILES: CC(C)NC(=O)Nc1ccc(Oc2nc3cc(Cl)ccc3s2)cc1 [NZ-376, 1-{4-[(5-chloro-1,3-benzothiazol-2-yl)oxy]phenyl}-3-(propan-2-yl)urea]
- concentrations at which not toxic, human fibroblast cytotoxicity testing (human fibroblast): ≥ 100 µM
- concentrations at which not toxic, S. cerevisiae cytotoxicity testing (S. cerevisiae): ≥ 100 µM

SMILES: CC(C)NC(=O)Nc1ccc(Oc2nc3ccc(C#N)cc3s2)cc1 [NZ-377, 1-{4-[(6-cyano-1,3-benzothiazol-2-yl)oxy]phenyl}-3-(propan-2-yl)urea]
- concentrations at which not toxic, human fibroblast cytotoxicity testing (human fibroblast): ≥ 100 µM
- concentrations at which not toxic, S. cerevisiae cytotoxicity testing (S. cerevisiae): ≥ 100 µM

SMILES: CCOC(=O)c1ccc2nc(Oc3ccc(NC(=O)NC(C)C)cc3)sc2c1 [NZ-378, ethyl 2-(4-{[(propan-2-yl)carbamoyl]amino}phenoxy)-1,3-benzothiazole-6-carboxylate]
- concentrations at which not toxic, human fibroblast cytotoxicity testing (human fibroblast; human): ≥ 100 µM
- concentrations at which not toxic, S. cerevisiae cytotoxicity testing (S. cerevisiae): ≥ 100 µM

SMILES: CC(C)NC(=O)Nc1ccc(Oc2nc3ccc(C(F)(F)F)cc3s2)cc1 [NZ-379, 3-(propan-2-yl)-1-(4-{[6-(trifluoromethyl)-1,3-benzothiazol-2-yl]oxy}phenyl)urea]
- concentrations at which not toxic, human fibroblast cytotoxicity testing (human fibroblast; human): ≥ 100 µM
- concentrations at which not toxic, S. cerevisiae cytotoxicity testing (S. cerevisiae): ≥ 100 µM

SMILES: CC(C)NC(=O)Nc1ccc(Oc2nc3ccc(S(C)(=O)=O)cc3s2)cc1 [NZ-380, 1-{4-[(6-methanesulfonyl-1,3-benzothiazol-2-yl)oxy]phenyl}-3-(propan-2-yl)urea]
- concentrations at which not toxic, human fibroblast cytotoxicity testing (human fibroblast; human): ≥ 100 µM
- concentrations at which not toxic, S. cerevisiae cytotoxicity testing (S. cerevisiae): ≥ 100 µM

SMILES: CC(C)NC(=O)Nc1ccc(Oc2nc3ccc(CO)cc3s2)cc1 [NZ-381, 1-(4-{[6-(hydroxymethyl)-1,3-benzothiazol-2-yl]oxy}phenyl)-3-(propan-2-yl)urea]
- concentrations at which not toxic, human fibroblast cytotoxicity testing (human fibroblast; human): ≥ 100 µM
- concentrations at which not toxic, S. cerevisiae cytotoxicity testing (S. cerevisiae): ≥ 100 µM

SMILES: CC(C)NC(=O)Nc1ccc(Oc2nc3cc(F)c(F)cc3s2)cc1 [NZ-382, 1-{4-[(5,6-difluoro-1,3-benzothiazol-2-yl)oxy]phenyl}-3-(propan-2-yl)urea]
- concentrations at which not toxic, human fibroblast cytotoxicity testing (human fibroblast; human): ≥ 100 µM
- concentrations at which not toxic, S. cerevisiae cytotoxicity testing (S. cerevisiae): 50 to 100 µM

SMILES: CNC(=O)Cc1ccc(Oc2nc3ccc(Cl)cc3s2)cc1 [NZ-383]
- concentrations at which not toxic, human fibroblast cytotoxicity testing (human fibroblast): ≥ 100 µM
- concentrations at which not toxic, S. cerevisiae cytotoxicity testing (S. cerevisiae): ≥ 100 µM

SMILES: CNC(=O)Cc1ccc(Oc2nc3ccc(F)cc3s2)cc1 [NZ-385, 2-{4-[(6-fluoro-1,3-benzothiazol-2-yl)oxy]phenyl}-N-methylacetamide]
- concentrations at which not toxic, human fibroblast cytotoxicity testing (human fibroblast): ≥ 100 µM
- concentrations at which not toxic, S. cerevisiae cytotoxicity testing (S. cerevisiae): ≥ 100 µM

SMILES: CC(C)NC(=O)N(C)c1ccc(Oc2nc3ccc(Cl)cc3s2)cc1 [NZ-388, 1-{4-[(6-chloro-1,3-benzothiazol-2-yl)oxy]phenyl}-1-methyl-3-(propan-2-yl)urea]
- concentrations at which not toxic, human fibroblast cytotoxicity testing (human fibroblast): ≥ 100 µM
- concentrations at which not toxic, S. cerevisiae cytotoxicity testing (S. cerevisiae): ≥ 100 µM

SMILES: CNC(=O)Cc1ccc(O)cc1Oc1nc2ccc(Cl)cc2s1 [NZ-390, 2-{2-[(6-chloro-1,3-benzothiazol-2-yl)oxy]-4-hydroxyphenyl}-N-methylacetamide]
- concentrations at which not toxic, human fibroblast cytotoxicity testing (human fibroblast; human): ≥ 100 µM
- concentrations at which not toxic, S. cerevisiae cytotoxicity testing (S. cerevisiae): ≥ 100 µM
